Starred links: 1 amine or outer side, 2 acyl side, 3 side chain; linkers in the order of their positions; H or OH if unused. Non-standard residues stand in square brackets, D forms with d. Residues, ends and D or L forms follow the SMILES beside them. *: point of attachment. dAla(cis-4-NHCOPyz-cHex) = N[C@H](C[C@H]1CC[C@@H](NC(=O)c2cnccn2)CC1)C(=O)O; X4 = O=C(N[C@H]1CC[C@@H](C[C@@H](N[*:1])C(=O)[*:2])CC1)c1cccnc1; X3 = O=C(N[C@H]1CC[C@H](C[C@@H](N[*:1])C(=O)[*:2])CC1)c1cnccn1; dPhe(3,4-Cl2) = N[C@H](Cc1ccc(Cl)c(Cl)c1)C(=O)O; X9 = CN=C(NCCC[C@H](N[*:1])C(=O)[*:2])N(C)C; dPhe(4-Cl) = N[C@H](Cc1ccc(Cl)cc1)C(=O)O; Pyrimidin2yl(4,6-Me2) = Cc1cc(C)nc(*)n1; d2Nal = N[C@H](Cc1ccc2ccccc2c1)C(=O)O; X11 = O=C([C@H](N[*:1])c1ccsc1)[*:2]; Lys(iPr) = CC(C)NCCCC[C@H](N)C(=O)O; Orn(iPr) = CC(C)NCCC[C@H](N)C(=O)O; aIle = CC[C@@H](C)[C@H](N)C(=O)O; d3Pal = N[C@H](Cc1cccnc1)C(=O)O; Isonicotinoyl = O=C(c1ccncc1)*; NMeL = CN[C@@H](CC(C)C)C(=O)O; Nicotinoyl = O=C(c1cccnc1)*; Picolinoyl = O=C(c1ccccn1)*; Nle = CCCC[C@H](N)C(=O)O; Orn = NCCC[C@H](N)C(=O)O; dAbu = CC[C@@H](N)C(=O)O; Bz = O=C(c1ccccc1)*

The subject of one series is anaesthesized rats. Kind of series: wheal test, intradermal injection. The class given is in vivo, rat. Set-up: Wheal (wheal response): unit not given here. The conditions noted are these: 10 ug peptide intradermally. Summed up:
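Anaesthetized rats given intradermal injection of 10 ug peptide in 100 ul saline; area of the wheal calculated from its diameter.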
For `CC(=O)N[C@H](Cc1ccc2ccccc2c1)C(=O)N[C@H](Cc1ccc(Cl)cc1)C(=O)N[C@@H](C(=O)N[C@@H](CO)C(=O)N[C@@H](CCCCNC(=O)c1ccccn1)C(=O)N[C@H](C[C@H]1CC[C@@H](NC(=O)c2cnccn2)CC1)C(=O)N[C@@H](CC(C)C)C(=O)N[C@@H](CCCCNC(C)C)C(=O)N1CCC[C@H]1C(=O)N[C@H](C)C(N)=O)c1ccsc1` [compound 26349] (Ac-[d2Nal][dPhe(4-Cl)][X11]SK(Picolinoyl)[dAla(cis-4-NHCOPyz-cHex)]L[Lys(iPr)]P[dA]-NH2), the “Wheal Area” value is 84.6 ± 3.9 mm^2 /10 μg.

`CC(=O)N[C@H](Cc1ccc2ccccc2c1)C(=O)N[C@H](Cc1ccc(Cl)cc1)C(=O)N[C@H](Cc1cccnc1)C(=O)N[C@@H](CO)C(=O)N[C@@H](CCCCNC(=O)c1ccccn1)C(=O)N[C@H](CCCCNC(=O)c1ccccn1)C(=O)N[C@@H](Cc1c[nH]c2ccccc12)C(=O)N[C@@H](CCCCNC(C)C)C(=O)N1CCC[C@H]1C(=O)N[C@H](C)C(N)=O` [compound 25935] (Ac-[d2Nal][dPhe(4-Cl)][d3Pal]SK(Picolinoyl)[dK](Picolinoyl)W[Lys(iPr)]P[dA]-NH2): the “Wheal Area” value worked out at 78.5 ± 0 mm^2 /10 μg.

Turning to `CC(=O)N[C@H](Cc1ccc2ccccc2c1)C(=O)N[C@H](Cc1ccc(Cl)cc1)C(=O)N[C@H](Cc1cccnc1)C(=O)N[C@@H](CO)C(=O)N[C@@H](CCCCNC(=O)c1cccnc1)C(=O)N[C@H](CCCCNC(=O)c1cccnc1)C(=O)N(C)[C@@H](CC(C)C)C(=O)N[C@@H](CCCCNC(C)C)C(=O)N1CCC[C@H]1C(=O)N[C@H](C)C(N)=O` [compound 26345] (Ac-[d2Nal][dPhe(4-Cl)][d3Pal]SK(Nicotinoyl)[dK](Nicotinoyl)[NMeL][Lys(iPr)]P[dA]-NH2), the “Wheal Area” value is reported as 110.5 ± 11.4 mm^2 /10 μg.

As to `CC(=O)N[C@H](Cc1ccc2ccccc2c1)C(=O)N[C@H](Cc1ccc(Cl)cc1)C(=O)N[C@H](Cc1cccnc1)C(=O)N[C@@H](CO)C(=O)N[C@@H](CCCCNC(=O)c1ccccn1)C(=O)N[C@H](C[C@H]1CC[C@H](NC(=O)c2cnccn2)CC1)C(=O)N[C@@H](CC(C)C)C(=O)N[C@@H](CCCCNC(C)C)C(=O)N1CCC[C@H]1C(=O)N[C@H](C)C(N)=O` [IV-5] (Ac-[d2Nal][dPhe(4-Cl)][d3Pal]SK(Picolinoyl)[X3]L[Lys(iPr)]P[dA]-NH2), the “Wheal Area” value amounted to 106.3 ± 4.3 mm^2 /10 μg.

Take `CC[C@@H](NC(=O)[C@@H]1CCCN1C(=O)[C@H](CCCCNC(C)C)NC(=O)[C@H](CC(C)C)NC(=O)[C@@H](CCCCNC(=O)c1ccccn1)NC(=O)[C@H](CCCCNC(=O)c1ccccn1)NC(=O)[C@H](CO)NC(=O)[C@@H](Cc1cccnc1)NC(=O)[C@@H](Cc1ccc(Cl)cc1)NC(=O)[C@@H](Cc1ccc2ccccc2c1)NC(C)=O)C(N)=O` [compound 26019] (Ac-[d2Nal][dPhe(4-Cl)][d3Pal]SK(Picolinoyl)[dK](Picolinoyl)L[Lys(iPr)]P[dAbu]-NH2): the “Wheal Area” value is recorded as 109.9 ± 3.0 mm^2 /10 μg.

Take `CCCC[C@H](NC(=O)[C@@H](CCCCNC(=O)c1ccccn1)NC(=O)[C@H](CCCCNC(=O)c1ccccn1)NC(=O)[C@H](CO)NC(=O)[C@@H](Cc1cccnc1)NC(=O)[C@@H](Cc1ccc(Cl)cc1)NC(=O)[C@@H](Cc1ccc2ccccc2c1)NC(C)=O)C(=O)N[C@@H](CCCCNC(C)C)C(=O)N1CCC[C@H]1C(=O)N[C@H](C)C(N)=O` [compound 25988] (Ac-[d2Nal][dPhe(4-Cl)][d3Pal]SK(Picolinoyl)[dK](Picolinoyl)[Nle][Lys(iPr)]P[dA]-NH2): the “Wheal Area” value was found to be 107.0 ± 6.0 mm^2 /10 μg.

The series is the same for the next values; noted with them: Table I; 10 ug peptide intradermally.
In the case of `CC(=O)N[C@H](Cc1ccc2ccccc2c1)C(=O)N[C@H](Cc1ccc(Cl)cc1)C(=O)N[C@H](Cc1cccnc1)C(=O)N[C@@H](CO)C(=O)N[C@@H](Cc1ccc(O)cc1)C(=O)N[C@H](CCCCNC(=O)c1cccnc1)C(=O)N[C@@H](CC(C)C)C(=O)N[C@@H](CCCN)C(=O)N1CCC[C@H]1C(=O)N[C@H](C)C(N)=O` [compound 24748] (Ac-[d2Nal][dPhe(4-Cl)][d3Pal]SY[dK](Nicotinoyl)L[Orn]P[dA]-NH2), the Wheal was determined as 129.4 mm^2 /10.

In turn, `CC(=O)N[C@H](Cc1ccc2ccccc2c1)C(=O)N[C@H](Cc1ccc(Cl)cc1)C(=O)N[C@H](Cc1cccnc1)C(=O)N[C@@H](CO)C(=O)N[C@@H](CCCNC(=N)N)C(=O)N[C@H](CCCCNC(=O)c1cccnc1)C(=O)N[C@@H](CC(C)C)C(=O)N[C@@H](CCCCNC(C)C)C(=O)N1CCC[C@H]1C(=O)N[C@H](C)C(N)=O` [compound 25335] (Ac-[d2Nal][dPhe(4-Cl)][d3Pal]SR[dK](Nicotinoyl)L[Lys(iPr)]P[dA]-NH2) returned a Wheal of 196.9 mm^2 /10.

`CC(=O)N[C@H](Cc1ccc2ccccc2c1)C(=O)N[C@H](Cc1ccc(Cl)cc1)C(=O)N[C@H](Cc1cccnc1)C(=O)N[C@@H](CO)C(=O)N[C@@H](CCCNc1nc(C)cc(C)n1)C(=O)N[C@H](CCCCNC(=O)c1cccnc1)C(=O)N[C@@H](CC(C)C)C(=O)N[C@@H](CCCCNC(C)C)C(=O)N1CCC[C@H]1C(=O)N[C@H](C)C(N)=O` [compound 25506] (Ac-[d2Nal][dPhe(4-Cl)][d3Pal]S[Orn](Pyrimidin2yl(4,6-Me2))[dK](Nicotinoyl)L[Lys(iPr)]P[dA]-NH2) displayed a Wheal of 110 ± 3 mm^2 /10.

On to `CC(=O)N[C@H](Cc1ccc2ccccc2c1)C(=O)N[C@H](Cc1ccc(Cl)cc1)C(=O)N[C@H](Cc1cccnc1)C(=O)N[C@@H](CO)C(=O)N[C@@H](CCCCNC(=O)c1ccncc1)C(=O)N[C@H](CCCCNC(=O)c1ccncc1)C(=O)N[C@@H](CC(C)C)C(=O)N[C@@H](CCCCNC(C)C)C(=O)N1CCC[C@H]1C(=O)N[C@H](C)C(N)=O` [compound 25146] (Ac-[d2Nal][dPhe(4-Cl)][d3Pal]SK(Isonicotinoyl)[dK](Isonicotinoyl)L[Lys(iPr)]P[dA]-NH2), for which the Wheal was 140.3 mm^2 /10.

Consider `CC(=O)N[C@H](Cc1ccc2ccccc2c1)C(=O)N[C@H](Cc1ccc(Cl)cc1)C(=O)N[C@H](Cc1cccnc1)C(=O)N[C@@H](CO)C(=O)N[C@@H](CCCCNC(C)C)C(=O)N[C@H](CCCCNC(=O)c1cccnc1)C(=O)N[C@@H](CC(C)C)C(=O)N[C@@H](CCCCNC(C)C)C(=O)N1CCC[C@H]1C(=O)N[C@H](C)C(N)=O` [compound 24543] (Ac-[d2Nal][dPhe(4-Cl)][d3Pal]S[Lys(iPr)][dK](Nicotinoyl)L[Lys(iPr)]P[dA]-NH2), for which the Wheal was determined as 132.7 mm^2 /10.

`CN=C(NCCC[C@H](NC(=O)[C@H](CC(C)C)NC(=O)[C@@H](CCCCNC(=O)c1cccnc1)NC(=O)[C@H](CCCCNC(=O)c1cccnc1)NC(=O)[C@H](CO)NC(=O)[C@@H](Cc1cccnc1)NC(=O)[C@@H](Cc1ccc(Cl)cc1)NC(=O)[C@@H](Cc1ccc2ccccc2c1)NC(C)=O)C(=O)N1CCC[C@H]1C(=O)N[C@H](C)C(N)=O)N(C)C` [compound 24987] (Ac-[d2Nal][dPhe(4-Cl)][d3Pal]SK(Nicotinoyl)[dK](Nicotinoyl)L[X9]P[dA]-NH2) had a Wheal of 150.9 ± 14.0 mm^2 /10.

Compound `CC(=O)N[C@H](Cc1ccc(Cl)c(Cl)c1)C(=O)N[C@H](Cc1ccc(Cl)cc1)C(=O)N[C@H](Cc1cccnc1)C(=O)N[C@@H](CO)C(=O)N[C@@H](Cc1ccc(O)cc1)C(=O)N[C@H](CCCCNC(=O)c1cccnc1)C(=O)N[C@@H](CC(C)C)C(=O)N[C@@H](CCCCNC(C)C)C(=O)N1CCC[C@H]1C(=O)N[C@H](C)C(N)=O` [compound 25338] (Ac-[dPhe(3,4-Cl2)][dPhe(4-Cl)][d3Pal]SY[dK](Nicotinoyl)L[Lys(iPr)]P[dA]-NH2) registered a Wheal of 103.9 mm^2 /10.

Take `CC(=O)N[C@H](Cc1ccc2ccccc2c1)C(=O)N[C@H](Cc1ccc(Cl)cc1)C(=O)N[C@H](Cc1cccnc1)C(=O)N[C@@H](CO)C(=O)N[C@@H](CCCCNC(=O)c1cccnc1)C(=O)N[C@H](Cc1cccnc1)C(=O)N[C@@H](CC(C)C)C(=O)N[C@@H](CCCNC(=N)N)C(=O)N1CCC[C@H]1C(=O)N[C@H](C)C(N)=O` [compound 22495] (Ac-[d2Nal][dPhe(4-Cl)][d3Pal]SK(Nicotinoyl)[d3Pal]LRP[dA]-NH2): the Wheal is recorded as 112 mm^2 /10.

`CC(=O)N[C@H](Cc1ccc2ccccc2c1)C(=O)N[C@H](Cc1ccc(Cl)cc1)C(=O)N[C@H](Cc1cccnc1)C(=O)N[C@@H](CO)C(=O)N[C@@H](CCCCNC(=O)c1cccnc1)C(=O)N[C@H](C[C@H]1CC[C@@H](NC(=O)c2cccnc2)CC1)C(=O)N[C@@H](CC(C)C)C(=O)N[C@@H](CCCCNC(C)C)C(=O)N1CCC[C@H]1C(=O)N[C@H](C)C(N)=O` [compound 25648] (Ac-[d2Nal][dPhe(4-Cl)][d3Pal]SK(Nicotinoyl)[X4]L[Lys(iPr)]P[dA]-NH2): the Wheal is recorded as 113.6 mm^2 /10.

In the case of `CC(=O)N[C@H](Cc1ccc2ccccc2c1)C(=O)N[C@H](Cc1ccc(Cl)cc1)C(=O)N[C@H](Cc1cccnc1)C(=O)N[C@@H](CO)C(=O)N[C@@H](CCCCNC(=O)c1cccnc1)C(=O)N[C@H](CCCCNC(=O)c1ccccc1)C(=O)N[C@@H](CC(C)C)C(=O)N[C@@H](CCCCNC(C)C)C(=O)N1CCC[C@H]1C(=O)N[C@H](C)C(N)=O` [compound 25332] (Ac-[d2Nal][dPhe(4-Cl)][d3Pal]SK(Nicotinoyl)[dK](Bz)L[Lys(iPr)]P[dA]-NH2), the Wheal was 119.6 mm^2 /10.

Still in this series, the particulars now being: Table XIV and text, unit not given.
For the compound `CC[C@@H](C)[C@H](NC(=O)[C@@H](CCCCNC(=O)c1ccccn1)NC(=O)[C@H](CCCCNC(=O)c1ccccn1)NC(=O)[C@H](CO)NC(=O)[C@@H](Cc1cccnc1)NC(=O)[C@@H](Cc1ccc(Cl)cc1)NC(=O)[C@@H](Cc1ccc2ccccc2c1)NC(C)=O)C(=O)N[C@@H](CCCNC(C)C)C(=O)N1CCC[C@H]1C(=O)N[C@H](C)C(N)=O` [IBR 26178] (Ac-[d2Nal][dPhe(4-Cl)][d3Pal]SK(Picolinoyl)[dK](Picolinoyl)[aIle][Orn(iPr)]P[dA]-NH2), the “Wheal (wheal response)” value is given as 78.6±4.5.

Turning to `CC(=O)N[C@H](Cc1ccc2ccccc2c1)C(=O)N[C@H](Cc1ccc(Cl)cc1)C(=O)N[C@H](Cc1cccnc1)C(=O)N[C@@H](CO)C(=O)N[C@@H](CCCCNC(=O)c1ccccn1)C(=O)N[C@H](C[C@H]1CC[C@@H](NC(=O)c2cnccn2)CC1)C(=O)N[C@@H](CC(C)C)C(=O)N[C@@H](CCCCNC(C)C)C(=O)N1CCC[C@H]1C(=O)N[C@H](C)C(N)=O` [compound 25897] (Ac-[d2Nal][dPhe(4-Cl)][d3Pal]SK(Picolinoyl)[dAla(cis-4-NHCOPyz-cHex)]L[Lys(iPr)]P[dA]-NH2), the “Wheal (wheal response)” value is recorded as 122.8.

The values are drawn from patent US5763404A, “Methods for using LHRH antagonists with low histamine release” (priority 1995, dated 1998).
